According to ChEMBL document CHEMBL2424595, “Substituted pyrrolo[2,3-d]pyrimidines as Cryptosporidium hominis thymidylate synthase inhibitors” (Bioorg Med Chem Lett, 2013):
Active and inactive are the calls of the source. No cut-off for these calls is given here.

What was measured:
Cryptosporidium hominis = assay: Inhibition of Cryptosporidium hominis DHFR
[1] = biological target: Thymidylate synthase (Homo sapiens) (UniProt P04818); assay: Inhibition of human thymidylate synthase
[2] = Inhibition of Cryptosporidium hominis thymidylate synthase

Chain of Thymidylate synthase (Homo sapiens) (P04818 2-313 limits assumed): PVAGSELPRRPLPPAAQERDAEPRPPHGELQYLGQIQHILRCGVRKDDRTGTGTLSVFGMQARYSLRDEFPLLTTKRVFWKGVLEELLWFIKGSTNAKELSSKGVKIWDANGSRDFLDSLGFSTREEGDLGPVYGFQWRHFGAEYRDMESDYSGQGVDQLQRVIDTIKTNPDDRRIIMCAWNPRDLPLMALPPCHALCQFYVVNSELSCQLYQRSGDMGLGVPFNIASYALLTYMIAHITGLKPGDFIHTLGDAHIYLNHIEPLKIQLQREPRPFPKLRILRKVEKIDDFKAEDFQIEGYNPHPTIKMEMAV

Structure (SMILES) | inhibition (Cryptosporidium hominis) | inhibition [1] | IC50 [2] [µM] | Ki [2] [µM]
Cc1[nH]c2nc(N)[nH]c(=O)c2c1Sc1ccc(C(=O)N[C@@H](CCC(=O)O)C(=O)O)c(Cl)c1 | Active | Active | 0.01 | 0.00883
Nc1nc2[nH]cc(Cc3ccc(C(=O)N[C@@H](CCC(=O)O)C(=O)O)cc3)c2c(=O)[nH]1 |  |  | 0.38 | 
Nc1nc2[nH]cc(CCCCCc3ccc(C(=O)N[C@@H](CCC(=O)O)C(=O)O)cc3)c2c(=O)[nH]1 |  |  | 31.1 | 
Nc1nc2[nH]cc(CCCc3ccc(C(=O)N[C@@H](CCC(=O)O)C(=O)O)cc3)c2c(=O)[nH]1 |  |  | 2.44 | 
Nc1nc2[nH]cc(Cc3ccc(C(=O)N[C@@H](CCC(=O)O)C(=O)O)s3)c2c(=O)[nH]1 | Active | Active | 0.03 | 
Nc1nc2[nH]cc(CCc3ccc(C(=O)N[C@@H](CCC(=O)O)C(=O)O)cc3)c2c(=O)[nH]1 [PEMETREXED] |  |  | 2.09 | 
